According to ChEMBL document CHEMBL3784945, “Isoindolinone compounds active as Kv1.5 blockers identified using a multicomponent reaction approach” (Bioorg Med Chem Lett, 2016):
Converted amounts (≈) assume the structure as drawn.

How the values were obtained:
Liver microsome = test: (§1) Intrinsic clearance in human liver microsomes; assay type: ADME; details: microsomes
[1] = molecular target: T1, Potassium voltage-gated channel subfamily A member 5 (Homo sapiens, UniProt P22460); test: Inhibition of human Kv1.5 channel by QPatch-clamp method
T1 sequence (P22460 whole entry): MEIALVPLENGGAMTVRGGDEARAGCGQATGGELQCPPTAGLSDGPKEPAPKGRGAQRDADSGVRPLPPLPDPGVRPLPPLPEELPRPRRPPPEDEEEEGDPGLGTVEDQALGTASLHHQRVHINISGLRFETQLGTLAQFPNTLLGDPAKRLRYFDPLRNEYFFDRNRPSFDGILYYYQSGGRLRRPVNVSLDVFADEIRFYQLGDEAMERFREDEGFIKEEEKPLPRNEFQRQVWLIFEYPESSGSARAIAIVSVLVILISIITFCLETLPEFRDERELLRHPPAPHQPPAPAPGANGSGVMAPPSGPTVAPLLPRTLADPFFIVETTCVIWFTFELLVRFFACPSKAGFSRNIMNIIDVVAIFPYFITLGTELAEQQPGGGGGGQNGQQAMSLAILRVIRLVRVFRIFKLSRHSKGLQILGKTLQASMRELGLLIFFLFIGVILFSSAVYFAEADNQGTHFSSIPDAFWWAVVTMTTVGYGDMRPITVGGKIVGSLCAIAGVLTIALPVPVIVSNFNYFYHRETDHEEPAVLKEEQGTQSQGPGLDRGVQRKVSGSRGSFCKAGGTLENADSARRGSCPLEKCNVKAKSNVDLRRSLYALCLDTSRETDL

[2] = as §1; assay type: ADME; details: liver microsomes, read-out: CLH
[3] = molecular target: Voltage-gated inwardly rectifying potassium channel KCNH2 (Homo sapiens, UniProt Q12809); test: Inhibition of human ERG
Sequence of Voltage-gated inwardly rectifying potassium channel KCNH2 (Q12809 whole entry): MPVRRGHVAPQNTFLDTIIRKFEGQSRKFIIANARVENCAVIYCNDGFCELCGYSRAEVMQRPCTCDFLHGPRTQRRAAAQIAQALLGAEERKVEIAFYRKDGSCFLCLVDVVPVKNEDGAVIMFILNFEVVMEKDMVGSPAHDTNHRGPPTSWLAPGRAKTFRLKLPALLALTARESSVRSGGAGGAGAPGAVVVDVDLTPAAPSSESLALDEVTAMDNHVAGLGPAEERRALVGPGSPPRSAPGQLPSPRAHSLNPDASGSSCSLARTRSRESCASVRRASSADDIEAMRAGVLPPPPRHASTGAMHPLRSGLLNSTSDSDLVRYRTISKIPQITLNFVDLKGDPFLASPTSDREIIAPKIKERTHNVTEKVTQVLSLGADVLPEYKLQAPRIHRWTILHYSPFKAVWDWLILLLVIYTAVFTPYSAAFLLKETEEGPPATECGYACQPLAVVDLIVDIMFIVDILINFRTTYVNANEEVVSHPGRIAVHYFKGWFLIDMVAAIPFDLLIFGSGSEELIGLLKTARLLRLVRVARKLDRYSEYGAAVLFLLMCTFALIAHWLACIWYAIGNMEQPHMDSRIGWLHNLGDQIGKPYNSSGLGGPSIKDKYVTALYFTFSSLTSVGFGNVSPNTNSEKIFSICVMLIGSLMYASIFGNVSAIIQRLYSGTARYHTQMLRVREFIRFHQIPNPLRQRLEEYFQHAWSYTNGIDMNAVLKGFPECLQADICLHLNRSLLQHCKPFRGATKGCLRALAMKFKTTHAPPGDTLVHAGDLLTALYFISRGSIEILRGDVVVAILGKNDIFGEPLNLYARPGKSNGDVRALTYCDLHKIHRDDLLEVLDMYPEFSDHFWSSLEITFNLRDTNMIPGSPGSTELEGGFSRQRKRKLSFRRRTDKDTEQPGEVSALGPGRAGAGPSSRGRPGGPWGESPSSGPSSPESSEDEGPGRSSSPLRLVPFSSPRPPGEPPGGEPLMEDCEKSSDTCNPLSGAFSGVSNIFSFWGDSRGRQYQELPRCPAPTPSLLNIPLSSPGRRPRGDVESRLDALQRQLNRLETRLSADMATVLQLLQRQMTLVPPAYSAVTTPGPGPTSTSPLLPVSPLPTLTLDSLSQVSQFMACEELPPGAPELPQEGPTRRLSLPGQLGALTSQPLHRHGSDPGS

[4] = molecular target: T1, Potassium voltage-gated channel subfamily A member 5; test: Inhibition of human Kv1.5 channel by Rb-flux assay
[5] = Lipophilicity, log D of the compound by HPLC analysis; assay type: physicochemical
Mus musculus = test: In vivo inhibition of Kv1.5 channel in BaLBc mouse assessed as unbound steady-state plasma concentration required to increase QT-interval by 30% at 20 umol/kg,iv for 15 mins; assay type: functional
[6] = Clearance in iv dosed dog; assay type: ADME, organism-based, Canis lupus familiaris; details: in vivo
[7] = Absolute bioavailability in dog; assay type: ADME, organism-based, Canis lupus familiaris; details: in vivo
Cytochrome P450 3A4 = Cytochrome P450 3A4 (Homo sapiens, UniProt P08684); test: Inhibition of CYP3A4 (unknown origin); assay type: ADME
Sequence of Cytochrome P450 3A4 (P08684 whole entry): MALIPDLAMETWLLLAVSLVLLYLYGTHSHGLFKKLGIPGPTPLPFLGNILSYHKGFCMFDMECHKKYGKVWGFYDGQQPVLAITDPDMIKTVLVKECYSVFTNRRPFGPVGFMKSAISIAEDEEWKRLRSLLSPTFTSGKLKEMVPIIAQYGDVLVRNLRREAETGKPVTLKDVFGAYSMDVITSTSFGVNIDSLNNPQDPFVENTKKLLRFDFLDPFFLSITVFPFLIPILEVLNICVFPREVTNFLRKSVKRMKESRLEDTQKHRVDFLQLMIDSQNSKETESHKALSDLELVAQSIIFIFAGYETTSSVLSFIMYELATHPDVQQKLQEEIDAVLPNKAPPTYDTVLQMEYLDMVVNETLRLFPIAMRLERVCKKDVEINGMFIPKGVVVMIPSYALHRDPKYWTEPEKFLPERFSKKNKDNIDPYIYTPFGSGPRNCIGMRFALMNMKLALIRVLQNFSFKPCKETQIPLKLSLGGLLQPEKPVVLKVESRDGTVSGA

[8] = Clearance in iv dosed rat; assay type: ADME, organism-based; details: in vivo
[9] = Absolute bioavailability in rat; assay type: ADME, organism-based; details: in vivo
[10] = Solubility of crystalline form of compound; assay type: physicochemical
[11] = Solubility of the compound; assay type: physicochemical

| Structure (SMILES) | IC50 [1] | microsomal CLint [2] | IC50 [4] | logD ([5]; read-out: logD) | IC50 [3] | other results |
| --- | --- | --- | --- | --- | --- | --- |
| CC(C)(C)NC(=O)C1c2ccc(NS(C)(=O)=O)cc2C(=O)N1Cc1ccccc1-c1ccccc1 (racemic) | 7600 nM | 59 µL/min/mg | 17 µM | 4 | 15 µM |  |
| CC(C)(C)NC(=O)C1c2ccccc2C(=O)N1Cc1ccc(F)cc1-c1ccccc1 (single isomer, unassigned; enantiomer 1) | 800 nM | 58 µL/min/mg |  | 5.2 | > 33 µM | Activity (Mus musculus): 0.054 µM |
| COc1ccc2c(c1)C(=O)N(Cc1ccccc1-c1ccccc1)C2C(=O)NC(C)(C)C (racemic) |  | > 100 µL/min/mg | 11.3 µM | 4.9 | 30 µM |  |
| CCCCNC(=O)C1c2ccccc2C(=O)N1CC(C)c1ccc(F)cc1 (racemic) | 900 nM | 180 µL/min/mg |  | 4.1 |  |  |
| CC(C)(C)NC(=O)C1c2ccccc2C(=O)N1Cc1ccccc1-c1ccccc1 (single isomer, unassigned; enantiomer 2) |  |  |  |  | > 33 µM |  |
| Cc1c(O)ccc2c1C(=O)N(Cc1ccccc1-c1ccccc1)C2C(=O)NC(C)(C)C (single isomer, unassigned; enantiomer 2) | 3400 nM |  | 17 µM |  | 26 µM | CLH (Liver microsome): 24 µL/min/mg |
| Cc1c(O)ccc2c1C(=O)N(Cc1ccccc1-c1ccc(F)c(F)c1)C2C(=O)NC(C)(C)C (centres undefined) | 3500 nM | < 12 µL/min/mg |  | 4.6 |  |  |
| CC(C)(C)NC(=O)C1c2ccccc2C(=O)N1Cc1ccccc1-c1ccccc1 (single isomer, unassigned; enantiomer 1) |  |  |  |  | > 33 µM |  |
| CC(C)(C)NC(=O)C1c2ccccc2C(=O)N1Cc1ccccc1-c1ccc(F)c(F)c1 (stereo in doubt; 16E1) | 1500 nM |  |  | 5 | > 33 µM | Activity (Mus musculus): 0.066 µM; CLH (Liver microsome): 38 µL/min/mg |
| CC(C)(C)NC(=O)C1c2ccccc2C(=O)N1Cc1ccc(F)cc1-c1ccc(F)cc1 (centres undefined) | 1400 nM | 34 µL/min/mg |  | 5 | > 33 µM | Activity (Mus musculus): 0.9 µM |
| CC(C)(C)NC(=O)C1c2c(O)cccc2C(=O)N1Cc1ccccc1-c1ccccc1 (racemic) | 2100 nM | > 100 µL/min/mg |  | 4.6 | 28 µM |  |
| CCCCNC(=O)C1c2ccccc2C(=O)N1CC(C)(O)c1ccc(Cl)cc1 (centres undefined) | 1200 nM | 64 µL/min/mg |  | 3.5 |  |  |
| CC(C)(C)NC(=O)C1c2ccc(O)cc2C(=O)N1Cc1ccccc1-c1ccccc1 (racemic) | 6900 nM | > 100 µL/min/mg | 8.4 µM | 4 | 45 µM |  |
| CC(C)(C)NC(=O)C1c2ccccc2C(=O)N1Cc1cc(F)ccc1-c1ccc(F)cc1 (single isomer, unassigned; enantiomer 2) | 900 nM |  |  |  | > 33 µM | Activity (Mus musculus): 0.28 µM; CLH (Liver microsome): 41 µL/min/mg |
| Cc1c(O)ccc2c1C(=O)N(Cc1ccccc1-c1ccccc1)C2C(=O)NC(C)(C)C (single isomer, unassigned) | 1300 nM |  | 1.1 µM |  | > 32 µM | CLH (Liver microsome): 20 µL/min/mg |
| Cc1c(OS(C)(=O)=O)ccc2c1C(=O)N(Cc1ccccc1-c1ccccc1)C2C(=O)NC(C)(C)C (racemic) |  | > 100 µL/min/mg | 10.5 µM | 5.1 | > 32 µM |  |
| CCCNC(=O)C1c2ccccc2C(=O)N1CC(C)c1ccc(Cl)cc1 (single isomer, unassigned; isomer 1) | 400 nM | 99 µL/min/mg |  | 4.2 |  | clearance [6]: 6 mL/min/kg; Activity (Mus musculus): 0.5 µM; bioavailability [7]: 63%; IC50 (Cytochrome P450 3A4): > 50 µM; clearance [8]: 7.8 mL/min/kg; bioavailability [9]: 81%; solubility [10]: 21 µM (≈ 7.79 µg/mL) |
| COc1ccc2c(c1C)C(=O)N(Cc1ccccc1-c1ccccc1)C2C(=O)NC(C)(C)C (racemic) | 800 nM | > 100 µL/min/mg |  | 5.6 |  |  |
| CC(C)(CN1C(=O)c2ccccc2C1C(=O)NCCCC(F)F)c1ccc(F)cc1 (centres undefined) | 600 nM | 23 µL/min/mg |  | 4.1 |  |  |
| CC(C)(C)NC(=O)C1c2ccccc2C(=O)N1Cc1ccccc1-c1ccccc1 (racemic) |  | > 100 µL/min/mg |  | 4.7 | 62 µM |  |
| CC(C)(C)NC(=O)C1c2ccccc2C(=O)N1Cc1cc(F)ccc1-c1ccccc1 (single isomer, unassigned; enantiomer 2) | 1600 nM |  |  |  | > 33 µM | CLH (Liver microsome): 96 µL/min/mg |
| CC(C)(C)NC(=O)C1c2ccccc2C(=O)N1Cc1cc(F)ccc1-c1ccccc1 (single isomer, unassigned; enantiomer 1) | 1400 nM | 102 µL/min/mg |  | 5.2 | > 33 µM | Activity (Mus musculus): 0.079 µM |
| CC(C)(C)NC(=O)C1c2ccccc2C(=O)N1Cc1ccc(F)cc1-c1ccccc1 (single isomer, unassigned) | 1700 nM |  |  |  | > 32 µM | CLH (Liver microsome): 62 µL/min/mg |
| Cc1c(O)ccc2c1C(=O)N(Cc1ccccc1-c1ccccc1)C2C(=O)NC(C)(C)C (racemic) | 2000 nM | < 12 µL/min/mg | 3.2 µM | 4.4 | 46 µM |  |
| CC(c1ccccc1)N1C(=O)c2ccccc2C1C(=O)NC(C)(C)CO (racemic) | > 10000 nM | 34 µL/min/mg | > 32 µM |  | > 33 µM |  |
| CC(C)(C)NC(=O)C1c2ccccc2C(=O)N1Cc1cc(F)ccc1-c1ccc(F)cc1 (single isomer, unassigned; enantiomer 1) | 2000 nM | 49 µL/min/mg |  | 5.3 | > 33 µM | Activity (Mus musculus): 0.055 µM |
| CC(C)(C)NC(=O)C1c2cc(C#N)ccc2C(=O)N1Cc1ccccc1-c1ccccc1 (racemic) | 3300 nM | > 100 µL/min/mg |  | 4.7 | > 33 µM |  |
| CC(C)(C)NC(=O)C1c2ccccc2C(=O)N1Cc1ccccc1-c1ccc(F)c(F)c1 (single isomer, unassigned; enantiomer 2) | 1100 nM |  |  |  | > 31 µM | CLH (Liver microsome): 103 µL/min/mg |
| CC(C)(C)NC(=O)C1c2ccccc2C(=O)N1Cc1ccccc1-c1ccc(F)cc1 (centres undefined) | 6000 nM | 53 µL/min/mg |  | 4.8 | 56 µM |  |
| COCCOCCNC(=O)C1c2cc(F)ccc2C(=O)N1CC(C)c1ccc(Cl)cc1 (racemic) |  | > 100 µL/min/mg | > 32 µM | 3.6 | > 33 µM |  |

Now from value to compound, other results behind:

| IC50 [1] | microsomal CLint [2] | IC50 [4] | logD ([5]; read-out: logD) | Structure (SMILES) | IC50 [3] | other results |
| --- | --- | --- | --- | --- | --- | --- |
| 1000 nM |  |  |  | CC(C)(CN1C(=O)c2ccccc2C1C(=O)NCCCF)c1ccc(Cl)cc1 (single isomer, unassigned; enantiomer 2) |  | CLH (Liver microsome): 19 µL/min/mg |
|  | > 100 µL/min/mg | 37 µM | 4.7 | CC(C)(C)NC(=O)C1c2ccc(C#N)cc2C(=O)N1Cc1ccccc1-c1ccccc1 (racemic) |  |  |
|  | > 100 µL/min/mg | 1.2 µM | 5.9 | Cc1c(OC(F)F)ccc2c1C(=O)N(Cc1ccccc1-c1ccccc1)C2C(=O)NC(C)(C)C (racemic) | 22 µM |  |
|  | 62 µL/min/mg | > 32 µM |  | CC(C)(C)NC(=O)C1c2cc(Cl)ccc2C(=O)N1C(c1cccnc1)c1cccnc1 (racemic) |  |  |
| 500 nM |  |  |  | CC(C)(CN1C(=O)c2ccccc2C1C(=O)NCCCF)c1ccc(Cl)cc1 (stereo in doubt; 23) |  | Activity (Mus musculus): 1.3 µM; CLH (Liver microsome): < 12 µL/min/mg; logD [5]: 4 |
|  | > 100 µL/min/mg | 13 µM |  | O=C(NCc1ccncc1)C1c2ccccc2C(=O)N1Cc1ccccc1-c1ccccc1 (racemic) | > 33 µM |  |
| 1300 nM | > 100 µL/min/mg |  | 5.6 | Cc1c(OCF)ccc2c1C(=O)N(Cc1ccccc1-c1ccccc1)C2C(=O)NC(C)(C)C (racemic) |  |  |
| 4500 nM | 88 µL/min/mg | 31 µM | 4.3 | Cc1c(NS(C)(=O)=O)ccc2c1C(=O)N(Cc1ccccc1-c1ccccc1)C2C(=O)NC(C)(C)C (racemic) | > 33 µM |  |
| 1200 nM | < 12 µL/min/mg |  | 3.7 | CC(C)(CN1C(=O)c2ccccc2C1C(=O)NCC(F)F)c1ccc(F)cc1 (centres undefined) |  | Activity (Mus musculus): 1.6 µM |
| 700 nM |  |  |  | CCCNC(=O)C1c2ccccc2C(=O)N1CC(C)c1ccc(Cl)cc1 (single isomer, unassigned; isomer 2) |  | Activity (Mus musculus): 0.4 µM; CLH (Liver microsome): 183 µL/min/mg; logD [5]: 3.9 |
| 700 nM | 14 µL/min/mg |  | 4.2 | CC(C)(CN1C(=O)c2ccccc2C1C(=O)NCCCF)c1ccc(Cl)cc1 (single isomer, unassigned; enantiomer 1) | > 33 µM | clearance [6]: 18 mL/min/kg; Activity (Mus musculus): 0.4 µM; solubility [11]: 83 µM (≈ 33.4 µg/mL); bioavailability [7]: 41%; IC50 (Cytochrome P450 3A4): > 50 µM; clearance [8]: 4.7 mL/min/kg; bioavailability [9]: 58% |
| 2700 nM | < 12 µL/min/mg |  | 4.5 | Cc1c(O)ccc2c1C(=O)N(Cc1ccccc1-c1ccc(F)cc1)C2C(=O)NC(C)(C)C (centres undefined) | > 32 µM |  |
|  | > 100 µL/min/mg |  | 3.5 | CC(c1ccccc1)N1C(=O)c2ccccc2C1C(=O)NCc1ccccc1 (racemic) | > 33 µM |  |
| 1200 nM | 73 µL/min/mg |  | 3.7 | CC(CN1C(=O)c2ccccc2C1C(=O)NCC(F)F)c1ccc(Cl)cc1 (racemic) |  |  |
| 1100 nM | > 100 µL/min/mg | 0.7 µM | 4.5 | CCCCNC(=O)C1c2ccccc2C(=O)N1CC(C)c1ccc(Cl)cc1 (racemic) | 32 µM |  |
